Assay results from patent US12049638B2, “Synthetic genetic elements for biomanufacture” (Janssen Biotech, Inc., priority 2019, dated 2024).

Columns and labels:
P600-PEAK-Rapid cells = assay: AAV production from P600 stable pool after Ad5-CMV-SR21 infection, with 2-aminopurine, ddPCR mCherry assay; assay type: cell-based, human
Method: ddPCR quantitation was based on the method described by Lock et al. (2014) Human Gene Therapy methods 23: 115-125. Two 1 of the lysate was DNAse digested in 20 reactions containing 1× PCR buffer+20 mM Tris pH 8.5+8 units DNAse I at 37° C. for 1 hour 96-well plates in a thermocycler. 2 μl of the DNAse digested samples were diluted with 98 Virus Dilution Buffer (VDB) and 2 μl of this dilution was added to ddPCR reactions containing 1× PCR SuperMix+1× PCR Primer/Probe for the mCherry transgene (See Materials section). ddPCR droplets were formed using the Bio-Rad automated droplet maker. PCR cycling was as follows: 95° C. 10 min; 42× (94° C. 30s, 60° C. 1 min, 72° C. 15s all three at cycling time of 2° C. per s); 98° C. 10 min; 4° C. hold. FAM fluorescence was detected on the Bio-Rad droplet reader as per manufacturer's instructions. The clones that produced the highest DNAse-resistant particles as detected as FAM-fluorescence positive droplets were subjected to expansion and further screening.
Construct P600 was transfected into Peak-RAPID cells and a stable pool was generated through selection with 0.5 μg/ml puromycin essentially as described for P439 cells above. Cells were passed 1:10 for 6 weeks prior to assaying AAV production.
2.5E6 P600-PEAK-Rapid p6 cells were plated into three T25 flasks in 5 mls DMEM+10% FBS and incubated for three days at 37° C. The cells density on the day of infection was determined to be 6.6E6 viable cells in one of the flasks where cells were recovered with TrypLE and counted using Trypan blue exclusion. Media in the two remaining flasks were replaced with […] DMEM+2% FBS containing 2.6E8 Ad5-CMV-SR21 virus particles. The flasks were incubated for 24 hours at 32° C. […] One ml of DMEM+2% FBS was added to the other flask, and both flasks were incubated at 32° C. for 7 additional days. Media was recovered from the flasks, centrifuged at 3,000 rpm for 5 minutes to pellet cells and debris. 2 μl of each sample supernatant was subjected to DNAse digestion and ddPCR quantitation using the mCherry assay as described above.

adenovirus infection = conditions: cited from earlier work
[1] = system: recombinase reporter plasmid (P41) with SR21 attP and attB signals; assay: Recombinase reporter assay (Dual Glo firefly/Renilla luciferase) in transfected HEK293 cells; assay type: cell-based, human
Description: A vector (P175) (SEQ ID NO:10) was constructed by Gene Synthesis (GENEWIZ, Plainfield, N.J.) to express SR21 recombinase in mammalian cells under control of the CMV promoter and followed by an SV40 polyadenylation signal. The SR21 recombinase open reading frame is the same as SEQ ID NO:3 except that the bacterial translation initiation codon “TTG” is replaced by an “ATG”, and three point-mutations were introduced to destroy restriction endonuclease recognition sites.
A recombinase reporter plasmid (P41) was also constructed by gene synthesis (GENEWIZ, Plainfield, N.J.) (SEQ ID NO:11; FIG. 4). It encodes a constitutively expressed green fluorescent protein (GFP)—self-cleaving F2A—Renilla luciferase (rLUC) fusion protein driven by the EF1α promoter. It also encodes recombinase activated—mCherry-self cleaving P2A-firefly luciferase (fLUC) reporter gene flanked by SR21 attP (SEQ ID NO:7) and attB (SEQ ID NO:9) signals in the antisense orientation relative to the CMV promoter. When SR21 recombinase recombines the attP and attB signals, the coding region is inverted into the sense orientation and the mCherry-P2A-fLUC protein is expressed (See FIG. 4).
To measure SR21 recombinase activity in human cells, 75,000 HEK293 cells were plated into each well of 96-well tissue culture plates in 100 of high-glucose DMEM+10% Fetal Bovine Serum. The recombinase reporter plasmid (P041) the SR21 Recombinase expression plasmid (P175)+[…] (to normalize DNA amounts) were complexed with Fugene-HD transfection reagent in OptiMEM medium for 15 minutes at room temperature as shown in Table 1 and transfected into triplicate wells of the plated cells. Plates were incubated at 37° C. for 48 hours.
Firefly Luciferase (fLUC) and Renilla luciferase (rLUC) was assayed sequentially in transfected wells using the Dual Glo assay kit from Promega. Medium was removed from the transfected wells of the tissue culture plate and 100 μl of a 1:1 mixture of DMEM medium (without phenol red) and the Dual Glo luciferase+fLUC substrate was added. The plate was incubated at room temperature for 10 minutes. The lysate was transferred to an opaque white 96-well plate. fLUC activity was measured using the Envision multilabel reader. Next, 50 μl per well of the Stop-and-Glo buffer+Renilla substrate was added and the plate was incubated with gentle shaking for 10 minutes. The Renilla luciferase signal was read on the same Envision reader.

[2] = system: Stop Cassette of vector P439 (attP/attB); assay: Stop Cassette removal by SR21 Recombinase, co-transfection of P439 and P175, PCR and sequencing; assay type: cell-based, human; conditions: PEAK-Rapid cells, three days; PCR product sequenced; attL produced
Method: Media was removed, cells were washed once with D-PBS and then incubated with TrypLE for 5 minutes at 37° C. Cells were transferred to a sterile microfuge tube, pelleted by centrifugation, washed once with 1 ml D-PBS and pelleted again. Episomal plasmids were recovered by alkaline lysis using the Qiagen Spin Miniprep kit designed for isolating plasmids from bacteria.
To destroy unrecombined plasmid DNA, an aliquot of the recovered DNA was digested with enzyme Spe I-HF in 1× CutSmart Buffer at 37° C. Ihour and 80° C. 20 minutes. The recovered DNA was subjected to PCR amplification with primers P349F3 (SEQ ID NO:32) and P349R9 (SEQ ID NO:33) using NEXT Ultra II Q5 Master Mix with the following cycling conditions: 98° C. 1 min; 35× (98° C. 10s, 72° C. 10s); 5 min 72° C. A single PCR product of the predicted size was observed when subjected to electrophoresis on a 1% agarose gel. The PCR product was purified by size exclusion chromatography using a CHROMA SPIN™+TE-1000 Column. The PCR product was sequenced using the same primers used for PCR (GeneWiz).

| Molecule | AAV GC/Cell (P600-PEAK-Rapid cells; DMEM + 2% FBS + 1.25 mM 2-AP added 24 hours post infection, 32° C., 7 additional days, media) | effect on AAV production (P600-PEAK-Rapid cells; concentrations above 1.25 mM and addition earlier than 24 hours) | increase in AAV virus production (P600-PEAK-Rapid cells; in the presence of 2-aminopurine versus without, P600 stable pool) | cytopathic effect of adenovirus infection (adenovirus infection; 10 mM 2-AP treatment 1-2 hours post infection) | toxicity to cells (adenovirus infection; 10 mM 2-AP, for at least three days) | rLUC ([1]; 100 ng P41 reporter + 100 ng P175, 48 hours, constitutive Renilla luciferase (transfection efficiency)) | fLUC ([1]; 100 ng P41 reporter + 100 ng P175 recombinase expression plasmid, 48 hours) | Fold-Increase in fLUC Activity ([1]; reporter + recombinase expression plasmid versus reporter + deoxynucleotides) | SR21 recombinase activity in human cells ([1]; representative of three independent experiments) | removal of STOP cassette from plasmid P439 by recombining attP and attB [2] |
| --- | --- | --- | --- | --- | --- | --- | --- | --- | --- | --- |
| Nc1ncc2[nH]cnc2n1 [2-AP, 2-aminopurine] | 59,356 ± 11,026 GC/Cell | inhibitory | 2.5 fold | blocked | nontoxic | – | – | – | – | – |
| SR21 recombinase: putative serine recombinase from Bacillus safensis strain CCMA-560, SEQ ID NO:2, expressed from plasmid P175 (protein, SR21 Recombinase (WP_029708089.1) Protein Sequence) MELKHIVNSYNVTKIIGYLRRSRQDVEREKRTGEDTLTEQKELMNKILTGIEIPYETRTEIGSGESIEGRPVFKSCLADLRSGKFQAIAVKEITRLSRGSYSDAGEIVNLLNEKRIIIITPYKIYDPRNPVDARQIRFELFMAREEFEMTRERMNGAKFTYAAQGKWISGLAPFGYKLNKRTSRLEPSDEDKVVVKLIFDIFLNGLDGKDLSYTAIATHLSKLQFTTPRGGKRWSKDTVRKILQNEAYMGRVRYKARETTKDGKKVFRPESEHIVVDDAHEPIINKEDFEAVQEKIKNKVPLLPVVTSYEPNELAGICVCSVCGKSLQKFESEYNRKNKDGTSSYFHVKLLICKINKCTSVRYEYVEEAILEYLEQLIALENNKLKAIIEKSMEAAETNNSEKTSEQMLVQANQKQKELENKLTFIFEKFESGIYTDEMFLQRKAAIEKEVADIKKLKQELSMTFEVKEKDVNEFRVNISDVVKFYKESKSRGLKNEKLRSIFDFIVLEMTEKRRGPIPAKFNIYPVLRIPSVVN | – | – | – | – | – | 3.4E06 ± | 6.6E06 ± | 1535 fold | highly active | precisely removed |
